“And” between values parts separate entries of the source, which are not always exact repeats. Equal entries are not always repeated. Each block holds one compound with its values, some of them ahead of it. Bridge positions count the residues as written; N and C are the ends. Peptide text beside a SMILES is read from it.
Experiments:
[1] = system: V2R-mediated ERK 1/2 phosphorylation; assay: Immunoblotting for ERK 1/2 phosphorylation in HEK293 cells expressing V2R; format: cell-based, human; details: 1 µM peptide
Description: Immunoblotting was performed as described previously. Briefly, following an overnight incubation and 16 h starvation HEK293 cells transiently expressing human V2R were treated with 1 µM I8-arachnotocin or 1 µM VP prepared in DMEM. Cells were incubated with peptide ligands at 37 °C for indicated periods and 1 mL of chilled 1x phosphate-buffered saline were used to terminate the incubation. After freeze-thaw cycle in liquid nitrogen cells were solubilized in 100 µl of lysis buffer (50 mM HEPES, 0.5% NP-40 substitute, 50 mM glycerol-2-phosphate, 250 mM NaCl, 5 mM EDTA, 2 mM imidazole, 1 mM Na3VO4, 1 mM hepta-molybdate, pH adjusted to 7.0 with NaOH), freshly added 1 mM PMSF, one cOmplete Mini EDTA-free tablet (Roche) and one PhosSTOP tablet (Roche) and then centrifuged at 10,000 × g for 10 min. The bicinchoninic acid assay (Micro-BCA kit, Pierce) was used to measure total protein content. Phosphorylated and total ERK 1/2 were detected by immunoblotting on the same membrane using the same exposure method with an anti-phospho-p44/42 MAPK antibody (ERK 1/2) (1:1,000; Cell Signaling Technology) and an anti-p44/42 MAPK (ERK 1/2) (1:1,000; Cell Signaling Technology), respectively. Detection and quantification of resulting bands were executed by secondary antibodies (Donkey anti rabbit 680RD and […]) and Odyssey Clx (LiCor Biosciences) infrared fluorescent imaging system, respectively.

human OTR [2] = biological target: T1, human OTR (Homo sapiens, UniProt P30559); assay: β-arrestin-2 recruitment BRET at OTR
T1 sequence (P30559 1-389): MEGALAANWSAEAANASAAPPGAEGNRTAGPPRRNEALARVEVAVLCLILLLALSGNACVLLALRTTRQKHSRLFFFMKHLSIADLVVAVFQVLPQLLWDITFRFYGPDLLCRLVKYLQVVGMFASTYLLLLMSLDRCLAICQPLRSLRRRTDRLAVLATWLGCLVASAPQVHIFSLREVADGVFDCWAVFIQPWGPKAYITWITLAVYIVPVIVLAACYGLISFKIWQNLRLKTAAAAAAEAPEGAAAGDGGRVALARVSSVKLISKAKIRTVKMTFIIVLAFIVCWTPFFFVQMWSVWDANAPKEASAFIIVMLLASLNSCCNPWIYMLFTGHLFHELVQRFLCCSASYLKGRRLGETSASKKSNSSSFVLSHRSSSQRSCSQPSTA

human V2R [3] = biological target: T2, human V2R (Homo sapiens, UniProt P30518); assay: β-arrestin-1 recruitment BRET at V2R
human V1aR [4] = biological target: T3, human V1aR (Homo sapiens, UniProt P37288); assay: β-arrestin-2 recruitment BRET at V1aR
human V1bR [5] = biological target: T4, human V1bR (Homo sapiens, UniProt P47901); assay: β-arrestin-2 recruitment BRET at V1bR; format: cell-based; design: expressed in transfected cells; host or cells: HEK293; details: for EC50: β-arrestin-2 recruitment
T4 sequence (P47901 1-424): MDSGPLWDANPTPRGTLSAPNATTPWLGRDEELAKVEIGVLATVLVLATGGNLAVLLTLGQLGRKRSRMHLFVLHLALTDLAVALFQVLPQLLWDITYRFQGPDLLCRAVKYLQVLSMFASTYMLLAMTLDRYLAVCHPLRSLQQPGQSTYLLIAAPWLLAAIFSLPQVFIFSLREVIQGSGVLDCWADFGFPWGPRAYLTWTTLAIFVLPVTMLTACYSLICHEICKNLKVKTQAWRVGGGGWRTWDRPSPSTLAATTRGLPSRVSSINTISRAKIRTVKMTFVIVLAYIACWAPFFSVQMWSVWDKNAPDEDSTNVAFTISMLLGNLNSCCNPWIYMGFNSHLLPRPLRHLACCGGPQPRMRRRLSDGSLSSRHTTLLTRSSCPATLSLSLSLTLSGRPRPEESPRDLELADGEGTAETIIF

human V2R [6] = biological target: T2, human V2R; assay: β-arrestin-2 recruitment BRET at V2R; format: cell-based; design: expressed in transfected cells; host or cells: HEK293
human V1aR [7] = biological target: T3, human V1aR; assay: Antagonist screen and Schild regression analysis (IP1) at V1aR
human OTR [8] = biological target: T1, human OTR; assay: IP1 accumulation (IP-One Gq assay), HEK293 cells expressing OTR
human V1aR [9] = biological target: T3, human V1aR; assay: IP1 accumulation (IP-One Gq assay), HEK293 cells expressing V1aR; details: concentrations up to 10 µM
human V1bR [10] = biological target: T4, human V1bR; assay: IP1 accumulation (IP-One Gq assay), HEK293 cells expressing V1bR
human V2R [11] = biological target: T2, human V2R; assay: cAMP accumulation (LANCE Ultra cAMP), HEK293 cells expressing V2R
[12] = biological target: EGFP-tagged human oxytocin receptor (human) (UniProt P30559)
[13] = biological target: EGFP-tagged human vasopressin V1a receptor (human) (UniProt P37288)
[14] = biological target: EGFP-tagged human vasopressin V1b receptor (human) (UniProt P47901)
[15] = biological target: EGFP-tagged human vasopressin V2 receptor (human) (UniProt P30518)
[16] = biological target: EGFP-tagged human oxytocin receptor (human) (UniProt P30559); remark: listed apart in the source
[17] = biological target: EGFP-tagged human vasopressin V1b receptor (human) (UniProt P47901); remark: listed apart in the source
[18] = biological target: EGFP-tagged human vasopressin V2 receptor (human) (UniProt P30518); remark: listed apart in the source

Emax (human OTR [2]): 32 ± 5%
EC50 (human OTR [2]; EC50, β-arrestin-2 recruitment, OTR): 5700 nM
β-arrestin-2 recruitment kinetics (human OTR [2]; OTR, 10 µM ligand): absent
bias (method of Kenakin) compared to OT (human OTR [2]; OTR, G protein vs β-arrestin-2): did not detect differences
EC50 (human OTR [2]; pEC50 (as logEC50 ± SEM), β-arrestin-2 recruitment, OTR): 5750 nM
β-arrestin-1 recruitment kinetics (human V2R [3]; 10 µM ligand, time-dependent): failed to recruit β-arrestin-1
β-arrestin-1 recruitment (human V2R [3]; up to 100 µM): no β-arrestin-1 recruitment
β-arrestin-2 recruitment kinetics (human V1aR [4]; 10 µM ligand): absent
Emax (human V1bR [5]): 65 ± 5%
bias (method of Kenakin) compared to VP (human V1bR [5]; V1bR, G protein vs β-arrestin-2): did not detect differences
EC50 (human V1bR [5]; V1bR, read-out: EC50): 1200 nM
EC50 (human V1bR [5]; V1bR, read-out: pEC50 (as logEC50 ± SEM) (converted)): 1200 nM
difference non-β-arrestin-dependent vs β-arrestin-dependent EC50 (human V2R [6]): > 2,000 fold
β-arrestin-2 recruitment kinetics (human V2R [6]; 10 µM ligand): absent
β-arrestin-2 recruitment (human V2R [6]; up to a concentration of 100 µM): did not recruit β-arrestin-2
EC50 (human V2R [6]; β-arrestin-1 or -2 recruitment, read-out: EC50 of β-arrestin-dependent signaling pathway): > 100000 nM
pA2 expressed as concentration (human V1aR [7]; Schild regression at V1aR): 558 nM and ~ 558 nM
pA2 (human V1aR [7]; Schild regression, VP curves in presence of 1, 3, 10 µM I8-arachnotocin): 6.25 and 6.253
Schild regression slope (human V1aR [7]; V1aR, VP as agonist): 1.28 ± 0.02
type of antagonism (human V1aR [7]; V1aR, dextral shift without affecting Emax): competitive antagonist
IP1 levels in antagonist screen (human V1aR [7]; VP (0.55 nM) in the presence of 1 and 10 µM I8-arachnotocin): lower IP1 levels than VP alone
EC50 (human OTR [8]; EC50, IP1 accumulation, G protein-mediated, OTR): 790 nM
Emax (human OTR [8]; HEK293): 62 ± 6%
type of agonism (human OTR [8]; OTR, second messenger signaling): partial agonist
fold less potent compared to the endogenous peptide (human OTR [8]; OTR, vs OT): 65 fold
EC50 (human OTR [8]; pEC50 (as logEC50 ± SEM), IP1 accumulation, OTR): 776 nM
activation of V1aR (human V1aR [9]): No activation
EC50 (human V1bR [10]; EC50, IP1 accumulation, G protein-mediated, V1bR): 1200 nM
Emax (human V1bR [10]; HEK293): 104 ± 8%
type of agonism (human V1bR [10]; V1bR, second messenger signaling): full agonist
fold less potent compared to the endogenous peptide (human V1bR [10]; V1bR, vs VP): 750 fold
EC50 (human V1bR [10]; pEC50 (as logEC50 ± SEM), IP1 accumulation, V1bR): 1170 nM
EC50 (human V2R [11]; EC50, cAMP accumulation, G protein-mediated, V2R): 34 nM
Emax (human V2R [11]; HEK293): 99 ± 3%
type of agonism (human V2R [11]; V2R, second messenger signaling): full agonist
fold less potent compared to the endogenous peptide (human V2R [11]; V2R, vs VP): 5,000 fold
EC50 (human V2R [11]; pEC50 (as logEC50 ± SEM), cAMP accumulation, V2R): 33.9 nM
Compound: CC[C@H](C)[C@@H]1NC(=O)[C@H](Cc2ccccc2)NC(=O)[C@@H](N)CSSC[C@@H](C(=O)N2CCC[C@H]2C(=O)N[C@H](C(=O)NCC(N)=O)[C@@H](C)CC)NC(=O)[C@H](CC(N)=O)NC(=O)[C@H]([C@@H](C)O)NC1=O [I8-arachnotocin] (H-CFITNCPIG-NH2; disulfide 1-6; N-terminus assumed)
course of ERK 1/2 phosphorylation after the peak (late phase, 30–120 min) ([1]; 1 min to 2 h): decreased over time
time of peak ERK 1/2 phosphorylation ([1]; HEK293 expressing human V2R): 5 min
β-arrestin-2 recruitment (human V1aR [4]; concentration up to 100 µM): no I8-arachnotocin-induced β-arrestin-2 recruitment was detected

IP1 accumulation (Gαq) in HEK293 cells expressing human OTR; EC50 [12]: 790 nM
IP1 accumulation (Gαq) in HEK293 cells expressing human OTR; Emax relative to OT [12]: 62%
Schild regression of VP-induced IP1 accumulation at human V1aR in the presence of 1, 3 and 10 µM I8-arachnotocin (blocks VP at V1aR); pA2 [13]: 6.25
Schild regression of VP-induced IP1 accumulation at human V1aR in the presence of 1, 3 and 10 µM I8-arachnotocin (blocks VP at V1aR); pA2 as a concentration [13]: 558 nM
IP1 accumulation (Gαq) in HEK293 cells expressing human V1bR; EC50 [14]: 1200 nM
IP1 accumulation (Gαq) in HEK293 cells expressing human V1bR; Emax relative to VP [14]: 104%
cAMP accumulation (Gαs) in HEK293 cells expressing human V2R; EC50 [15]: 34 nM
cAMP accumulation (Gαs) in HEK293 cells expressing human V2R; Emax relative to VP [15]: 99%
β-arrestin-2 recruitment to OTR (BRET) against I8-arachnotocin concentration; EC50 [16]: 5700 nM
β-arrestin-2 recruitment to V1bR (BRET) against I8-arachnotocin concentration; EC50 [17]: 1200 nM
non-β-arrestin-dependent signaling at V2R as restated in the discussion; EC50 [18]: 50 nM
β-arrestin-dependent signaling (β-arrestin recruitment) at V2R as restated in the discussion; EC50 [18]: > 100000 nM
Compound: I8-arachnotocin (peptide)

IP1 accumulation (Gαq) in HEK293 cells expressing human OTR; EC50 [12]: 12 nM
β-arrestin-2 recruitment to OTR (BRET) against OT concentration; EC50 [16]: 170 nM
Compound: oxytocin (from UniProt P01178 20-28) (peptide)

Source: publication PMC6917733 (Scientific Reports, 2019)
